What was measured:
[1] = In vivo kinetic experiments (half-life); settings: SD, rat, blood, po, 10 mg/kg
C57BL/6 mice = test: Oral glucose tolerance test (OGTT); type: in vivo; settings: dose of 1 mg/kg, compared to the control group
Protocol: Blood was collected from caudal veins of animals in the morning on the day of the experiment and a blood glucose level was measured with an Accu-Chek Active Blood Glucose Meter (Roche Diagnostics). […] Blood collection was made at designated time points—just prior to drug administration, just prior to glucose administration, and 5, 15, 30, 60 and 90 min after glucose administration.

Structure (SMILES)	half-life [1] [h]	blood glucose-lowering effects (C57BL/6 mice) [%]
N[C@@H](CC(=O)N1CCn2c(nnc2C(F)(F)F)C1)Cc1cc(F)c(F)cc1F [MK-0431, reference compound]	4.8	–
CCOC[C@@H]1C(=O)NCCN1C(=O)C[C@H](N)Cc1cc(F)c(F)cc1F.Cl [Example 3, (R)-4-[(R)-3-amino-4-(2,4,5-trifluorophenyl)butanoyl]-3-(ethoxymethyl)piperazin-2-one hydrochloride]	7.6	52
CC(C)(C)OC[C@@H]1C(=O)NCCN1C(=O)C[C@H](N)Cc1cc(F)c(F)cc1F.Cl [Example 1, (R)-4-[(R)-3-amino-4-(2,4,5-trifluorophenyl)butanoyl]-3-(t-butoxymethyl)piperazin-2-one hydrochloride]	7.9	54
CC(C)(C)OC[C@@H]1C(=O)NCCN1C(=O)C[C@H](N)Cc1cc(F)c(F)cc1F.O=C(O)C(O)C(O)C(=O)O [Example 12, (R)-4-[(R)-3-amino-4-(2,4,5-trifluorophenyl)butanoyl]-3-(t-butoxymethyl)piperazin-2-one tartrate]	5.5	62

From US8030315B2, “DPP-IV inhibitor including beta-amino group, preparation method thereof and pharmaceutical composition containing the same for preventing and treating diabetes or obesity” (Dong-A Pharm. Co., Ltd., priority 2007, dated 2011)
